Reference: patent publication US8283370B2, “Imidazolidinedione derivatives as antimalarial agents, preparation thereof, and methods of use” (The United States of America as Represented by the …, priority 2008, dated 2012)
Values joined by “and” are separate entries in the source; they are usually repeats but may differ in a detail not shown here. Identical values can stand only once.

Tests used:
Type in all cases: in vivo
[1] = system: P. cynomolgi liver stage hypnozoites; experiment: Radical cure test in relapsed Rhesus monkeys
Description: Monkeys were treated with chloroquine (10 mg/kg/day) by oral for 7 consecutive days and the test compounds by IM for 3 consecutive days after the parasitemia level reached 5,000 parasites/mm^3. Chloroquine (CQ) at 10 mg/kg/day×7 days eliminates the blood stage parasites, but not the liver stage hypnozoites. Compounds with antihypnozoite activity will delay the relapse or radically cure the infection. To evaluate the radical curative properties, daily blood samples were followed for 21 days, 3 times per week for 4 weeks, and then 2 times weekly until 100 days after the last day of test compound administration. Parasite clearance should occur in all animals treated with chloroquine. Relapse is expected in the control group. Relapse in the treated group indicates failure of the test compounds. […] Relapses of the control monkeys were treated with chloroquine once daily for 7-days and observed for a second relapse. Relapse in experimental animals and the second relapse of the control monkeys were treated with the standard 7-day oral CQ (chloroquine) and primaquine (1.78 mg base/kg). After standard treatment, blood smears were monitored daily for 4 consecutive days of negative results and 2 times weekly for 2 weeks.

P. berghei sporozoites = experiment: Causal prophylactic activity, exoerythrocytic (EE) mouse model, P. berghei sporozoites; details: 3 days treated
Description: (§1) New compounds were assessed for their causal prophylactic activity in two different exoerythrocytic (EE) mouse models using sporozoites of either P. berghei or P. yoelii. The procedures have been previously described (see, for example, Q. Zhang et al., J. Med. Chem. 48 (20): 6472-6481 (2005)). Briefly, each compound was ground with a mortar and pestle and suspended in hydroxyethylcellulose and Tween 80 for compounds to be administered PO and those given SC were suspended in peanut oil. Each compound was prepared at different dose levels. Compounds were administered either PO or SC to mice once a day for three consecutive days, to mice on the day before, 4 hours before, and the day after being inoculated intraperitoneally with P. yoelii sporozoites or P. berghei sporozoites intravenously. Whole body weights were taken on Day 0 and Day 6 then approximately twice a week for 31 days. A blood film was taken on Day 5 and then approximately twice a week for 31 days. Mice losing greater than about 20% of their body weight were sacrificed. A compound was considered active if only low levels of parasites were found (less than about 10%) in blood films taken on Day 5 or any biweekly for 31 days. Mice alive on Day 31 with no parasites found in any blood films were considered protected.

P. yoelii sporozoites = experiment: Causal prophylactic activity, exoerythrocytic (EE) mouse model, P. yoelii sporozoites; details: for P. yoelli # Mice Protected/# Mice Used: 3 days treated; for Causal prophylactic protection in mice (comparison in words): Table 5, compared to control compound 3 or between P. yoelii and P. berghei
Description: as §1

P. cynomolgi sporozoites = experiment: Causal prophylactic test in P. cynomolgi sporozoites challenged Rhesus monkeys; details: for Causal prophylactic activity in Rhesus test (in words): 30 mg/kg/day for 3 days by IM; for Patency (Days Post-innoculation): one value per monkey, 30 mg/kg 1 daily for 3 days, IM (days -1, 0, +1), 30 mg/kg
Description: Among the new compounds prepared, representative compounds 5e, 6c, 7a and 7c were assessed for causal prophylactic and radical cure activities in Rhesus monkeys. To protect the Rhesus monkeys, a test compound must pass a mouse toxicity test at 300 mg/kg/day for 3 consecutive days by SC administration, and mice must not lose more than 5% body weight within 30 days after receiving the test compound.
The causal prophylactic and radical curative antimalarial activity of the new derivatives 5e, 6c, 7a and 7c were assessed in a P. cynomolgi sporozoites challenged Rhesus monkey model. Detailed procedure of sporozoites harvest and drug tests have been described previously (J. Guan et al., Bioorg. Med. Chem. 23, 699-704 (2005); Q. Zhang et al., J. Med. Chem. 48 (20): 6472-6481 (2005)) Briefly, monkeys were randomized to control groups and experimental groups. A donor monkey was inoculated intravenously with 1.3 mL freshly-thawed frozen infected red blood cells (DA310). When the donor monkey developed gametocytemia, mosquito feedings were conducted on days 13 and 14 after inoculation. The donor monkey was treated with intramuscular chloroquine hydrochloride (CQ) 10 mg/kg, once a day after the second mosquito feeding and continued for 7 days. On day 0 (beginning of assay), each of the monkeys was inoculated intravenously with 1-ml inoculum of suspension containing about 1.0×10^6 (one million) P. cynomolgi sporozoites harvested from Anopheles dirus mosquitoes' salivary glands previously fed on the donor monkey (See, for example, Corcoran, K D, et al. (1993) Am. J. Trop. Med. Hyg. 49:473 477, and Shanks, G D, et al. (2001) Clinical Infectious Diseases 33:1968 1974). All monkeys received treatment on days −1, 0 and 1. The control monkeys received dimethylsulfoxide (DMSO) and the experimental animals received testing compound intramusculary. After the assay, all monkeys were given standard malarial treatment. Specifically, seven-day primaquine (1.78 mg/kg) and chloroquine (10 mg/kg) were administered to treat all monkeys.

[2] = one value per monkey, 30 mg/kg 1 daily for 3 days IM with CQ 10 mg/kg x7 po

| Compound | P. berghei # Mice Protected/# Mice Used (P. berghei sporozoites; Dose/day 40 mg/kg) | P. berghei # Mice Protected/# Mice Used (P. berghei sporozoites; Dose/day 160 mg/kg) | P. yoelli # Mice Protected/# Mice Used (P. yoelii sporozoites; Dose/day 10 mg/kg) | P. yoelli # Mice Protected/# Mice Used (P. yoelii sporozoites; Dose/day 40 mg/kg) | P. yoelli # Mice Protected/# Mice Used (P. yoelii sporozoites; Dose/day 160 mg/kg) | Causal prophylactic activity in Rhesus test (in words) (P. cynomolgi sporozoites) | Patency (Days Post-innoculation) (P. cynomolgi sporozoites) | Delayed relapse, Days Post-treatment [1, 2] | other results |
| --- | --- | --- | --- | --- | --- | --- | --- | --- | --- |
| CCN(CC)CCCC(C)Nc1ccnc2cc(Cl)ccc12 (centres unmarked) [CQ, chloroquine, reference compound] |  |  |  |  |  |  |  |  | Relapse, Days Post-treatment ([1]; one value per monkey, CQ 10 mg/kg x7 po alone (Drug 2 none)): 9 days |
| CC(C)N1C(=O)C(=O)N=C1/N=C(\NC(=O)OC(C)(C)C)Nc1ccc(Cl)c(Cl)c1 [Compound 3, reference compound] | 2/10 | 4/10 | 3/5 | 2/5 | 4/5 |  |  |  |  |
| CC(C)N1C(=O)C(=O)N=C1N=C(NOCc1ccccc1)Nc1ccc(Cl)c(Cl)c1 [Compound 5e] | 0/5 | 0/5 |  |  |  | about equal in causal prophylactic activity to 7c | 27 days and 29 days | 35 days and 33 days |  |
| CC(C)NC(=NC1=NC(=O)C(=O)N1C(C)C)Nc1ccc(Cl)c(Cl)c1 [Compound 6c] | 0/5 | 1/5 |  |  |  | most potent causal prophylactic activity | 62 days and 94 days | 66 days and 91 days | Radical curative efficacy (in words) ([1]; test compound IM for 3 days with CQ po for 7 days): more active than 5e, 7a and 7c |
| CC(C)N1C(=O)C(=O)N=C1N=C(NCC(C)(C)C)Nc1ccc(Cl)c(Cl)c1 [Compound 6e] | 0/5 | 1/5 | 5/5 | 5/5 | 5/5 |  |  |  | Causal prophylactic protection in mice (comparison in words) (P. yoelii sporozoites): enhanced protection |
| CC(C)N1C(=O)C(=O)N=C1N=C(Nc1ccccc1)Nc1ccc(Cl)c(Cl)c1 [Compound 6f] | 0/5 | 0/5 | 5/5 | 5/5 | 5/5 |  |  |  | Causal prophylactic protection in mice (comparison in words) (P. yoelii sporozoites): enhanced protection |
| CCC(CC)C(=O)NC(=NC1=NC(=O)C(=O)N1C(C)C)Nc1ccc(Cl)c(Cl)c1 [Compound 7a] |  |  |  |  |  | weak causal prophylactic activity | 13 days and 17 days | 16 days | Delayed relapse, days longer as compared with control animals ([1]; 30 mg/kg 1 daily for 3 days IM with CQ 10 mg/kg x7 po): 7 days; Results (radical cure, in words) ([1]; 30 mg/kg 1 daily for 3 days IM with CQ 10 mg/kg x7 po, no relapse after 100 days = radically cured): One out of two monkeys treated with 7a was cured and Cure |
| CC(C)N1C(=O)C(=O)N=C1N=C(NC(=O)C(C)(C)C)Nc1ccc(Cl)c(Cl)c1 [Compound 7c] |  |  |  |  |  | superior protective activity than that of 7a | 21 days and 40 days |  | Delayed relapse, days longer as compared with control animals ([1]; 40 mg/kg 1 daily for 3 days IM with CQ 10 mg/kg x7 po): 20 days and 23 days; Delayed relapse, Days Post-treatment ([1]; one value per monkey, 40 mg/kg 1 daily for 3 days IM with CQ 10 mg/kg x7 po): 29 days and 32 days |
